Assay results reported in ChEMBL document CHEMBL1201862, “PubChem BioAssay data set” (2004).
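Where inhibition never reached the appropriate level, the endpoint shown equals the highest concentration tested. Otherwise, values were interpolated linearly from a five-concentration, 48-hour dose response in 96-well plates. Abbreviation: GI50, concentration required for 50% inhibition of growth.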 Active and inactive are the calls of the source. Cut-off read from the data, not from the text of the source: active = GI50 up to about 1.1 µM and inactive = higher.

Assays:
Assay in all cases: NCI anticancer screen, dose series, 48 h
[1] = system: RXF 631
[2] = system: DLD-1
[3] = system: KM-20L2
[4] = system: SNB-78
[5] = system: XF498
[6] = system: BT-549
[7] = system: DMS-273
[8] = system: M19-MEL
[9] = system: HOP-18

O=C(N[C@H]1CC2(C=C(I)C(=O)C(I)=C2)OC1=O)OCc1ccccc1 was tested, and the GI50 [1] was 17.1 µM (inactive), the GI50 [2] was 15.7 µM (inactive) and the GI50 [3] was 18.6 µM (inactive). For the same molecule, the GI50 [4] was 17.4 µM (inactive) and the GI50 [5] was 13.8 µM (inactive).
For CN1CCc2c(sc3nc(Nc4ccccc4)n(N)c(=O)c23)C1, the GI50 [6] was > 100 µM (inactive).
For CNC(=O)OCc1nccc2c(C)c3[nH]c4ccc(OC)cc4c3cc12, the GI50 [2] was 2.99 µM (inactive), the GI50 [7] was 7.23 µM (inactive) and the GI50 [8] was 5.61 µM (inactive). The GI50 [3] was 3.11 µM (inactive), the GI50 [4] was 16.6 µM (inactive) and the GI50 [9] was 2.47 µM (inactive). The GI50 [5] was 14.1 µM (inactive).
For CCOC(=O)c1c(Br)c(-c2ccc([N+](=O)[O-])cc2)c(Br)n1C, the GI50 [6] was > 10 µM (inactive).
With COc1ccc2cccc(C(=O)c3ccc(C)c4c3CCC4)c2c1 the GI50 [1] was 23 µM (inactive), the GI50 [2] was 21.5 µM (inactive) and the GI50 [7] was 29.1 µM (inactive). The GI50 [8] was 37.8 µM (inactive), the GI50 [3] was 35.9 µM (inactive) and the GI50 [9] was 33.3 µM (inactive).
With CCCCCCCCCCCCCCCCNc1ccc2c(c1)OCCOCCOCCOCCO2 the GI50 [6] was 3.44 µM (inactive).
With CC(=O)c1ccc(NC(=O)/C(CC(=O)c2sc(-c3cccnc3)nc2C)=N/NC(N)=O)cc1 the GI50 [8] was > 100 µM (inactive), the GI50 [3] was > 100 µM (inactive) and the GI50 [4] was > 100 µM (inactive). The GI50 [5] was > 100 µM (inactive).
With COC(=O)c1ccccc1C1CN=NC12Cc1c(C)cc(C)cc1C2=O (stereo unspecified) the GI50 [6] was > 100 µM (inactive).
In the case of O=C1c2[nH]c3ccccc3c2CCN2CCCCC12 (stereo unspecified), the GI50 [6] is reported as 27.6 µM (inactive).
For CC1=NN(C(=O)c2ccccc2O)C(=O)/C1=C/c1ccccc1O, the GI50 [2] was 0.0807 µM (active), the GI50 [3] was 11.5 µM (inactive) and the GI50 [5] was 0.365 µM (active). The GI50 [6] was 0.438 µM (active).
With CSc1nc(-c2cc3c(c(SC)n2)CCCCC3)cc2c1CCCCC2 the GI50 [6] was > 100 µM (inactive).
N=c1oc2cc(O)ccc2cc1C(=O)Nc1ccccn1 was tested, and the GI50 [6] was 73.6 µM (inactive).
For CN1C(=O)CCC2[C@@H]3CC=C4C[C@@H](O)CC[C@]4(C)C3CC[C@@]21C (stereo partly specified), the GI50 [1] was 28 µM (inactive), the GI50 [2] was > 100 µM (inactive) and the GI50 [7] was 64.1 µM (inactive). The GI50 [8] was 50.6 µM (inactive), the GI50 [3] was 53.5 µM (inactive) and the GI50 [4] was > 100 µM (inactive). The GI50 [5] was 45.7 µM (inactive).
In the case of c1ccc2c[n+](CCCC[n+]3ccc4ccccc4c3)ccc2c1, the GI50 [6] is reported as > 100 µM (inactive).
In the case of O=C(NNCc1ccco1)c1cc2ccccc2[nH]1, the GI50 [6] is reported as > 52.2 µM (inactive).
With NC(=S)N/N=C1\NC(=O)/C(=C/c2ccc3c(c2)OCO3)S1 the GI50 [6] was 25.1 µM (inactive).
In the case of N#CCC(=O)Nn1c(CC#N)nnc1Cc1ccccc1, the GI50 [6] is reported as > 100 µM (inactive).
In the case of O=C1/C(=C/c2ccc([N+](=O)[O-])cc2)CCCc2ccccc21, the GI50 [6] is reported as > 100 µM (inactive).
With O=C1CSC(c2c[nH]c3ccccc23)N1c1ccccc1[N+](=O)[O-] (stereo unspecified) the GI50 [6] was > 100 µM (inactive).
For NC1=NC(=O)/C(=C/c2ccccc2[N+](=O)[O-])C(N)=N1, the GI50 [1] was > 100 µM (inactive), the GI50 [2] was > 100 µM (inactive) and the GI50 [7] was > 100 µM (inactive). For the same molecule, the GI50 [8] was > 100 µM (inactive), the GI50 [3] was > 100 µM (inactive) and the GI50 [4] was > 100 µM (inactive). For the same molecule, the GI50 [9] was > 100 µM (inactive) and the GI50 [5] was > 100 µM (inactive).
With O=C1CC(=O)NC(NNS(=O)(=O)c2ccccc2)=N1 the GI50 [6] was > 100 µM (inactive).
For CCOc1ccccc1NC(=O)C1=C(C)NC(C)=C(C(=O)Nc2ccccc2OCC)C1c1ccc2c(c1)OCO2, the GI50 [2] was 22.2 µM (inactive), the GI50 [8] was 30.1 µM (inactive) and the GI50 [3] was 26.4 µM (inactive). For the same molecule, the GI50 [4] was 24.6 µM (inactive) and the GI50 [5] was 12.8 µM (inactive).
In the case of COc1ccc(CN2C(=O)C(Cc3cc(OC)c(OC)c(C)c3OC)NC(=O)/C2=C/c2cc(OC)c(OC)c(C)c2OC)cc1 (stereo unspecified), the GI50 [1] is reported as 43 µM (inactive), the GI50 [2] is reported as 33 µM (inactive) and the GI50 [7] is reported as > 10 µM (inactive). The GI50 [8] was 19.3 µM (inactive), the GI50 [3] was 25 µM (inactive) and the GI50 [9] was 26.1 µM (inactive).
COc1cccc(-c2nc(O)c3ccccc3n2)c1 was tested, and the GI50 [6] was 24.8 µM (inactive).
With Cc1c(C)c2c(c(N)c1C#N)C(=O)N(Cc1ccc(S(N)(=O)=O)cc1)C2=O the GI50 [6] was 19.4 µM (inactive).
For COc1ccc2c(c1)C(N)=C(c1ccccc1)C2=O, the GI50 [6] was > 100 µM (inactive).
COc1cc(C(=O)OC2CC34CCNC35CC(OC5(OC)C2O)c2cc3c(cc24)OCO3)ccc1O (stereo unspecified) was tested, and the GI50 [6] was > 100 µM (inactive).
For Nc1nc(N)c2nc(CNc3ccc(C(=O)O)cc3)[nH]c2n1, the GI50 [6] was > 100 µM (inactive).
CC(C)(C)c1ccc(CN2CCN(C(c3ccccc3)c3ccc(Cl)cc3)CC2)cc1 (stereo unspecified) was tested, and the GI50 [6] was > 100 µM (inactive).
For CN(C)CCNC(=O)c1ccc(Cl)c2c(Nc3ccc(S(=O)(=O)N=C(N)N)cc3)c3ccccc3nc12, the GI50 [2] was 5.62 µM (inactive), the GI50 [7] was 1.79 µM (inactive) and the GI50 [8] was 3.86 µM (inactive). The GI50 [3] was 5.53 µM (inactive), the GI50 [4] was 12.1 µM (inactive) and the GI50 [5] was 4.51 µM (inactive).
For Cc1cccc(NC(=O)CC(=O)N2N=C(N(CCC#N)c3ccc(Cl)cc3)CC2c2ccccc2)c1 (stereo unspecified), the GI50 [1] was > 100 µM (inactive), the GI50 [2] was > 100 µM (inactive) and the GI50 [7] was > 100 µM (inactive). For the same molecule, the GI50 [8] was > 100 µM (inactive), the GI50 [4] was > 100 µM (inactive) and the GI50 [9] was > 100 µM (inactive). The GI50 [5] was > 100 µM (inactive).
N#Cc1c2c(c(Cl)n3c1nc1ccccc13)CCCC2 was tested, and the GI50 [2] was 10.6 µM (inactive), the GI50 [7] was 1.09 µM (active) and the GI50 [8] was 3.61 µM (inactive). For the same molecule, the GI50 [3] was 2.49 µM (inactive), the GI50 [4] was 3.89 µM (inactive) and the GI50 [5] was 2.14 µM (inactive).
